The target in experiment [1] is human P2X2/3 receptor (Homo sapiens (Human), UniProt P56373+Q9UBL9). The experiment can be described thus: Intracellular calcium measurement (FLIPR, Fluo-4) of antagonist activity at human P2X2/3 receptors. In kind it is cell-based. To be noted: human P2X2/3, FLIPR calcium assay, agonist α,β-Me-ATP; read-out: hP2X2/3 IC50. In short, it runs like this:
(§1)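 Antagonism quantified from peak calcium fluorescence (Fluo-4, FLIPR, 90 sec read) evoked by EC80 α,β-Me-ATP, after a 30 min, 37° C. compound pretreatment in 1% DMSO. Human P2X3- or P2X2/3-expressing cells used; triplicate means fitted for IC50, percent maximal inhibition and Hill coefficient.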
A general note: A change in cytosolic calcium serves as a functional read-out for many receptors and channels.

Experiment [2] has as its target human P2X3 receptor (Homo sapiens (Human), UniProt P56373). The experiment can be described thus: Intracellular calcium measurement (FLIPR, Fluo-4) of antagonist activity at human P2X3 receptors. In kind it is cell-based. The note with it: read-out: hP2X3 IC50. Summed up:
as §1

The mark [3] stands for this setting: human P2X3, FLIPR calcium assay, agonist α,β-Me-ATP.

Read-outs that look alike come from different tables or passages of the source.

Sequence of human P2X3 receptor (P56373 whole entry): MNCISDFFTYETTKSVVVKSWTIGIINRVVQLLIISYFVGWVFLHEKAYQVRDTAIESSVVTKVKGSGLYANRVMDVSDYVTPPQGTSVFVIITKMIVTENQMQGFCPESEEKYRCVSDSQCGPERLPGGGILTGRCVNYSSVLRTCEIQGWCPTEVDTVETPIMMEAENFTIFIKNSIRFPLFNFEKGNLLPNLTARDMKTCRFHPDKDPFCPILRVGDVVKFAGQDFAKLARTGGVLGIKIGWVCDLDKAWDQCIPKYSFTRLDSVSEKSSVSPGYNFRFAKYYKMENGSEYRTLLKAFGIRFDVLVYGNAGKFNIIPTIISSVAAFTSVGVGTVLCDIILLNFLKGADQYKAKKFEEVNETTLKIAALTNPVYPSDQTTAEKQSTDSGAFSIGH
Sequence of human P2X2/3 receptor (P56373 whole entry): as above
Sequence of human P2X2/3 receptor (Q9UBL9 whole entry): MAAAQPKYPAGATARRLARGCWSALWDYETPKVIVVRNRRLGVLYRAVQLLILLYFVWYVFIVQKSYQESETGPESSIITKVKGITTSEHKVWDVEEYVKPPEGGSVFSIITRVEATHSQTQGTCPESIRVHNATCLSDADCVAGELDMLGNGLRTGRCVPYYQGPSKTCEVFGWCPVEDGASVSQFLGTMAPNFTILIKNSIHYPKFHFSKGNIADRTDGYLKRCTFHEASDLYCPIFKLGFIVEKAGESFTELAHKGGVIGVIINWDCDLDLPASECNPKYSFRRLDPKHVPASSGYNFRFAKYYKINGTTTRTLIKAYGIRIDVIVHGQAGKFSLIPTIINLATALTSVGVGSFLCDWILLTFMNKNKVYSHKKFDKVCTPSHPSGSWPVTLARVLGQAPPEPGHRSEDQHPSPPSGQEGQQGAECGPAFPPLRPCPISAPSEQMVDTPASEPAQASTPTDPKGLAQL

In the case of `CCc1cnc(-c2cc(OC3CCOCC3)cc(C(=O)N[C@H](C)c3cnc(C(F)(F)F)nc3)c2)s1` [Example 129, 3-(5-Ethyl-1,3-thiazol-2-yl)-5-(tetrahydro-2H-pyran-4-yloxy)-N-{(1R)-1-[2-(trifluoromethyl)pyrimidin-5-yl]ethyl}benzamide], the IC50 in experiment [1] came to 33 nM; in experiment [2] (setting [3]), 3 nM.
Turning to `COC(=O)N1CCO[C@H](COc2cc(C(=O)N[C@H](C)c3cnc(C(F)(F)F)nc3)cc(-c3ncc(C)s3)c2)C1` [Example 393, methyl (2S)-2-{[3-(5-methyl-1,3-thiazol-2-yl)-5-({(1R)-1-[2-(trifluoromethyl)pyrimidin-5-yl]ethyl}carbamoyl)phenoxy]methyl}morpholine-4-carboxylate], the IC50 was found to be 1030 nM in experiment [1] and 24 nM in experiment [2] (setting [3]).
Consider `Cc1cnc(-c2cc(OC[C@H]3CCOC3)cc(C(=O)NC(C)c3ncc(Cl)cc3F)c2)s1` (stereo partly drawn) [Example 65, N-[1-(5-Chloro-3-fluoropyridin-2-yl)ethyl]-3-(5-methyL-1,3-thiazol-2-yl)-5-[(3S)-tetrahydrofuran-3-ylmethoxy]benzamide], for which the IC50 in experiment [1] came to 54 nM; in experiment [2] (setting [3]), 3 nM.
As to `Cc1ccc(Oc2cc(C(=O)N[C@H](C)c3cnc(C(F)(F)F)nc3)cc(-c3ncc(C)s3)c2)nn1` [Example 170, 3-[(6-methylpyridazin-3-yl)oxy]-5-(5-methyl-1,3-thiazol-2-yl)-N-{(1R)-1-[2-(trifluoromethyl)pyrimidin-5-yl]ethyl}benzamide], the IC50 came to 2020 nM in experiment [1] and 165 nM in experiment [2] (setting [3]).
Regarding `Cc1cnc(-c2cc(OCC3CC3)cc(C(=O)N[C@H](C)c3nnc(C)s3)c2)s1` [Example 7, 3-(Cyclopropylmethoxy)-N-[(1R)-1-(5-methyl-1,3,4-thiadiazol-2-yl)ethyl]-5-(5-methyl-1,3-thiazol-2-yl)benzamide], the IC50 in experiment [1] is 106 nM; in experiment [2] (setting [3]), 8 nM.
In the case of `Cc1ccc([C@@H](C)NC(=O)c2cc(O[C@H]3CCOC3)cc(-c3ncc(C)s3)c2)cn1` [Example 30, N-[(1R)-1-(6-methylpyridin-3-yl)ethyl]-3-(5-methyl-1,3-thiazol-2-yl)-5-[(3S)-tetrahydrofuran-3-yloxy]benzamide], the IC50 in experiment [1] came to 485 nM; in experiment [2] (setting [3]) it was 38 nM.
As to `Cc1cnc(-c2cc(O[C@H]3C[C@H](N(C)C)C3)cc(C(=O)N[C@H](C)c3cnc(C(F)(F)F)nc3)c2)s1` [Example 165, 3-{[trans-3-(dimethylamino)cyclobutyl]oxy}-5-(5-methyl-1,3-thiazol-2-yl)-N-{(1R)-1-[2-(trifluoromethyl)pyrimidin-5-yl]ethyl}benzamide], the IC50 in experiment [1] was found to be 1920 nM; in experiment [2] (setting [3]), 81 nM.
`Cc1ccc(CNC(=O)c2cc(OCC3CCOCC3)cc(-c3ncc(C(F)(F)F)s3)c2)nn1` [Example 118, N-[(6-Methylpyridazin-3-yl)methyl]-3-(tetrahydro-2H-pyran-4-ylmethoxy)-5-[5-(trifluoromethyl)-1,3-thiazol-2-yl]benzamide]: the IC50 in experiment [1] was determined as 1130 nM; in experiment [2] (setting [3]), 198 nM.
For the molecule `CCN1CCO[C@H](COc2cc(C(=O)N[C@H](C)c3cnc(C(F)(F)F)nc3)cc(-c3ncc(C)s3)c2)C1` [Example 411, 3-{[(2S)-4-ethylmorpholin-2-yl]methoxy}-5-(5-methyl-1,3-thiazol-2-yl)-N-{(1R)-1-[2-(trifluoromethyl)pyrimidin-5-yl]ethyl}benzamide], the figures for the IC50 in experiment [1] and in experiment [2] (setting [3]) were 697 nM and 20 nM, respectively.
On the same counts, the results for `CCc1cnc(-c2cc(OC3CCOCC3)cc(C(=O)NCc3ccc(C)nn3)c2)s1` [Example 235, 3-(5-ethyl-1,3-thiazol-2-yl)-N-[(6-methylpyridazin-3-yl)methyl]-5-(tetrahydro-2H-pyran-4-yloxy)benzamide] are 70 nM and 18 nM.
Turning to `Cc1cnc([C@@H](C)NC(=O)c2cc(Oc3nccs3)cc(-c3ncc(C)s3)c2)cn1` [Example 112, N-[(1R)-1-(5-Methylpyrazin-2-yl)ethyl]-3-(5-methyl-1,3-thiazol-2-yl)-5-(1,3-thiazol-2-yloxy)benzamide], the figures for the IC50 in experiment [1] and in experiment [2] were 772 nM and 61 nM, respectively.
For `Cc1cnc(-c2cc(OC[C@H]3COCC(=O)N3C)cc(C(=O)N[C@H](C)c3cnc(C(F)(F)F)nc3)c2)s1` [Example 395, 3-{[(3R)-4-methyl-5-oxomorpholin-3-yl]methoxyl}-5-(5-methyl-1,3-thiazol-2-yl)-N-{(1R)-1-[2-(trifluoromethyl)pyrimidin-5-yl]ethyl}benzamide], the IC50 in experiment [1] came out at 1310 nM; in experiment [2] (setting [3]), 30 nM.
Turning to `Cc1ccc([C@@H](C)NC(=O)c2cc(OC[C@@H]3CCCO3)cc(-c3ncc(C4CCC4)s3)c2)nn1` [Example 285, 3-(5-cyclobutyl-1,3-thiazol-2-yl)-N-[(1R)-1-(6-methylpyridazin-3-yl)ethyl]-5-[(2S)-tetrahydrofuran-2-ylmethoxy]benzamide], the figures for the IC50 in experiment [1] and in experiment [2] (setting [3]) were 760 nM and 113 nM, respectively.
On to `C[C@@H](NC(=O)c1cc(OC[C@@H]2CN(C)CCO2)cc(-c2ncc(Cl)s2)c1)c1cnc(C(F)(F)F)nc1` [Example 376, 3-(5-chloro-1,3-thiazol-2-yl)-5-{[(2S)-4-methylmorpholin-2-yl]methoxy}-N-{(1R)-1-[2-(trifluoromethyl)pyrimidin-5-yl]ethyl}benzamide], for which the IC50 came out at 898 nM in experiment [1] and 32 nM in experiment [2] (setting [3]).
For `Cc1ncc([C@@H](C)NC(=O)c2cc(OCC3CC3)cc(-c3ncc(C)s3)c2)cn1` [Example 10, 3-(Cyclopropylmethoxy)-N-[(1R)-1-(2-methylpyrimidin-5-yl)ethyl]-5-(5-methyl-1,3-thiazol-2-yl)benzamide] the same measures were 185 nM and 7 nM.
With `Cc1ncc([C@@H](C)NC(=O)c2cc(OCC3CCOCC3)cc(-c3ncc(C4CCC4)s3)c2)cn1` [Example 124, 3-(5-Cyclobutyl-1,3-thiazol-2-yl)-N-[(1R)-1-(2-methylpyrimidin-5-yl)ethyl]-5-(tetrahydro-2H-pyran-4-ylmethoxy)benzamide], the IC50 in experiment [1] was 165 nM; in experiment [2] (setting [3]), 27 nM.
As to `Cc1cnc(-c2cc(OCC3(C)COC3)cc(C(=O)N[C@H](C)c3cnc(C(F)(F)F)nc3)c2)s1` [Example 327, 3-[(3-methyloxetan-3-yl)methoxy]-5-(5-methyl-1,3-thiazol-2-yl)-N-{(1R)-1-[2-(trifluoromethyl)pyrimidin-5-yl]ethyl}benzamide], the IC50 in experiment [1] was 239 nM; in experiment [2] (setting [3]) it was 10 nM.
On the same counts, the results for `Cc1ccc([C@@H](C)NC(=O)c2cc(OC[C@H]3CCCO3)cc(-c3ncc(C4CCC4)s3)c2)nn1` [Example 270, 3-(5-cyclobutyl-1,3-thiazol-2-yl)-N-[(1R)-1-(6-methylpyridazin-3-yl)ethyl]-5-[(2R)-tetrahydrofuran-2-ylmethoxy]benzamide] are 100 nM and 25 nM.
Take `Cc1cnc(CNC(=O)c2cc(OCC3CCOCC3)cc(-c3ncc(C)s3)c2)cn1` [Example 97, N-[(5-Methylpyrazin-2-yl)methyl]-3-(5-methyl-1,3-thiazol-2-yl)-5-(tetrahydro-2H-pyran-4-ylmethoxy)benzamide]: the IC50 in experiment [1] came out at 1690 nM; in experiment [2] (setting [3]) it was 15 nM.

These data come from patent publication US10174016B2 (BAYER AKTIENGESELLSCHAFT, priority 2014, dated 2019).
